Solubility data for one compound are collected here from article PMC12011184, “Galanin Reduces Myocardial Ischemia/Reperfusion Injury in Rats with Streptozotocin Diabetes” (Acta Naturae, 2025).

This data set is described as follows: Solubility of peptide G in water. The data set is classed as physicochemical. The procedure:
Peptide G was obtained by convergent solid-phase synthesis through condensation of peptide segments, which, in turn, were obtained either on a polymer surface or in solution. Peptide G was purified by preparative HPLC to 98% purity on a Knauer chromatograph (Germany) using a Kromasil 100-10 ODS column (Sweden) (30 × 250 mm). Analytical HPLC was performed on a Kromasil 100-5 C18 column (4.6 × 250 mm) with a 5-μm sorbent particle size. The following eluents were used: 0.1% TFA as buffer A and 80% acetonitrile in buffer A as buffer B. The elution was carried out in a linear buffer B gradient ranging from 20 to 80% for 30 min at a rate of 1 ml/min. Detection was performed at λ = 220 nm (Supplementary materials; Fig. S1). The peptide structure was confirmed by MALDI-TOF/TOF mass spectrometry on an UltrafleXtreme Bruker Daltonics GmbH mass spectrometer (Germany) equipped with a UV laser (Nd) (Supplementary materials, Fig. S2).

In turn, `CC[C@H](C)[C@H](NC(=O)[C@H](C)NC(=O)[C@H](Cc1c[nH]cn1)NC(=O)[C@@H]1CCCN1C(=O)CNC(=O)[C@H](CC(C)C)NC(=O)[C@H](CC(C)C)NC(=O)[C@H](Cc1ccc(O)cc1)NC(=O)CNC(=O)[C@H](C)NC(=O)[C@H](CO)NC(=O)[C@H](CC(N)=O)NC(=O)[C@H](CC(C)C)NC(=O)[C@@H](NC(=O)[C@H](Cc1c[nH]c2ccccc12)NC(=O)CN)[C@@H](C)O)C(=O)N[C@@H](CC(=O)O)C(=O)N[C@@H](CC(N)=O)C(=O)N[C@@H](Cc1c[nH]cn1)C(=O)N[C@@H](CCCNC(=N)N)C(=O)N[C@@H](CO)C(=O)N[C@@H](Cc1ccccc1)C(=O)N[C@@H](CO)C(=O)N[C@@H](CC(=O)O)C(=O)N[C@@H](CCCCN)C(=O)N[C@@H](Cc1c[nH]cn1)C(=O)NCC(=O)N[C@@H](CC(C)C)C(=O)N[C@H](C(N)=O)[C@@H](C)O` [G, galanin] yielded a solubility of more than 40 mg/mL.
